Marks after values point to notes of the source that are not given here.
Experiments:
TNF-α = experiment: Local TNF-α level in the arteries of apoE-/- mice (Millipore liquid phase chip); assay type: in vivo, mouse; conditions: high-fat diet, intragastric 15 weeks, compounds 30 mg/(kg·d), simvastatin 10 mg/(kg·d), x ± s, n = 5, saline control 25.58 ± 6.44
From the text: (§1) The effects of the compounds prepared in Examples 1-30 of the present invention on the percentages of areas of atherosclerotic plaque formation to the area of the entire artery in apoE−/− mice with a high-fat diet and the levels of low-density lipoprotein cholesterol and the levels of high-density lipoprotein, the specific steps are as follows: 1. animals: 160 ten-week-old, healthy and clean-grade apoE−/− mice (purchased from Peking University Experimental Animal Center), males, weight: 22-25 g, were housed in separate cages in a sterile laminar feeding room and fed freely. The mice were fed by a high-fat diet (conventional feed+0.15% cholesterol+21% lard) for 25 weeks, the room temperature was kept at 24° C., relative humidity: 50%, illumination time 7:30-19:30. 2. Grouping, administration method: after 10 weeks of feeding, the animals were divided into the following 32 groups (n=5) by weight in a balanced and random manner, and killed 15 weeks after administration. Normal saline control group: normal saline, intragastric administration. Positive control group: simvastatin 10 mg/(kg·d), intragastric administration. The compound groups prepared in Examples 1-30 of the present invention (30 groups in total): each was intragastric administered 30 mg/(kg·d). (3) Determination of TNF-α level: Millipore liquid phase chip method was used for the determination (Mcytomag-70K-3, Mouse Cytokine/Chemokine Magnetic Bead Panel). Data were expressed as x±s, and SPSS 10.0 line single-factor analysis of variance was performed among groups, a significant difference was indicated when p<0.05.

apoE−/− mice [1] = experiment: Blood lipids (LDL-C, HDL-C) in apoE-/- mice on high-fat diet; assay type: in vivo, mouse; conditions: apoE-/- mice serum, intragastric 15 weeks, compounds 30 mg/(kg·d), simvastatin 10 mg/(kg·d), x ± s; for HDL-C: n = 5, saline control 3.74 ± 0.62; for LDL-C: n = 5, saline control 7.33 ± 1.03
From the text: The effects of the compounds prepared in Examples 1-30 of the present invention on the percentages of areas of atherosclerotic plaque formation to the area of the entire artery in apoE−/− mice with a high-fat diet and the levels of low-density lipoprotein cholesterol and the levels of high-density lipoprotein, the specific steps are as follows:
1. animals: 160 ten-week-old, healthy and clean-grade apoE−/− mice (purchased from Peking University Experimental Animal Center), males, weight: 22-25 g, were housed in separate cages in a sterile laminar feeding room and fed freely. The mice were fed by a high-fat diet (conventional feed+0.15% cholesterol+21% lard) for 25 weeks, the room temperature was kept at 24° C., relative humidity: 50%, illumination time 7:30-19:30.
2. Grouping, administration method:
after 10 weeks of feeding, the animals were divided into the following 32 groups (n=5) by weight in a balanced and random manner, and killed 15 weeks after administration.
Normal saline control group: normal saline, intragastric administration.
Positive control group: simvastatin 10 mg/(kg·d), intragastric administration.
The compound groups prepared in Examples 1-30 of the present invention (30 groups in total): each was intragastric administered 30 mg/(kg·d).
(2) Determination of the levels of total cholesterol (TC), low-density cholesterol lipoprotein (LDL-C) and high-density lipoprotein cholesterol (HDL-C): using ROCHE 7060 automatic biochemical analyzer for the determination.
Data were expressed as x±s, and SPSS 10.0 line single-factor analysis of variance was performed among groups, a significant difference was indicated when p<0.05.

RAW264.7 cells = experiment: RAW264.7 cell survival rate by CCK8 method; assay type: cell-based, mouse; conditions: compound 10 prnol/L, 0.1% DMSO, CCK8, x ± s, n = 3, normal saline control = 1
Protocol: In order to further verify the toxicities of the compounds prepared in Examples 1-30 of the present invention, the mouse macrophage cell line RAW264.7 was cultured, and the compounds prepared in Examples 1-30 of the invention were prepared to a concentration of […] using culture medium, wherein the solvent was normal saline, the co-solvent was dimethyl sulfoxide (DMSO, the final concentratoin was 0.1%), and a 0.1% DMSO saline control group was provided. The cell survival rate was determined by CCK8 method. The data were expressed as x±s. SPSS 10.0 line single-factor analysis of variance was performed among groups. The difference was significant when p<0.05.

[2] = test system: RAW264.7 cell-derived foam cells; experiment: Formation of RAW264.7 cell-derived foam cells (ox-LDL, oil red O, absorbance 490 nm); assay type: cell-based, mouse; conditions: 48 hours, model group = 100%, x ± s, n = 3
Protocol: The effects of the compounds prepared in Examples 1-30 of the present invention on the formation of RAW264.7 cell-derived foam cells, the specific steps are as follows:
1. Cell culture and foam cell model establishment:
RAW264.7 cells were cultured in DMEM culture medium with high glucose level (GIBCO) to a cell concentration of 1×10^6, planted in a 6-well plate, and 60 mg/L of ox-LDL (oxidized modified low-density lipoprotein, Peking Union Medical College) was added, foam cells were obtained after 48 hours of incubation.
2. Grouping and index detection:
The obtained foam cells were divided into 61 groups, 3 well plates were included in one group. After the treatment by adding the drugs (100 μL/well) for 48 hours, the medium was discarded, and after oil red 0 staining, the excess amount of oil red 0 was washed away. The cells were dissolved in isopropanol and the absorbance values were measured at 490 nm. The OD value of the model group was 100%, and the OD value of each group corrected by the number of cells was compared with the model group to obtain the ratio of intracellular lipid content. The larger the value, the more intracellular lipids, the higher the degree of formation of foam cells.
Normal saline control group: normal saline
Low dose groups of the compounds prepared in Examples 1-30 of the present invention:
10 μmol/L (solvents were normal saline).
High dose groups of compounds prepared in Examples 1-30 of the present invention: 30 μmol/L (solvents were normal saline).
Data were expressed as x±s, and SPSS 10.0 line single-factor analysis of variance was performed amoung groups, a significant difference was indicated when p<0.05.

apoE−/− mice [3] = experiment: Atherosclerotic plaque area to total aortic area in apoE-/- mice on high-fat diet (Sudan IV staining); assay type: in vivo, mouse; conditions: intragastric 15 weeks, compounds 30 mg/(kg·d), simvastatin 10 mg/(kg·d), x ± s, n = 5, saline control 14.67 ± 3.58
From the text: as §1, with “(1) Analysis” for “(3) Determination”, “the area of atherosclerotic plaque and its percentage to total area: after the animals were killed, the aortas were separated, from the roots of the aortas to the terminal bifurcations of the abdominal aortas. After formalin fixation, the aortas were stained with Sudan IV, the red stained parts were the areas of atherosclerotic lesions. The percentage of the area of the lesion area to total area” for “TNF-α level: Millipore liquid phase chip method”, “calculated using Image Pro Plus 5.0 software.” for “used for the determination (Mcytomag-70K-3, Mouse Cytokine/Chemokine Magnetic Bead Panel).”

Compound	TNF-α level (ng/g) (TNF-α)	HDL-C (apoE−/− mice [1])	LDL-C (apoE−/− mice [1])	Cell Survival Rate (RAW264.7 cells)	Foam cell formation (%) ([2]; dose 10 μmol/L)	Foam cell formation (%) ([2]; dose 30 μmol/L)	Plaque area/total aorta area (%) (apoE−/− mice [3])
CC(=O)OC1CC2[C@@]3(C)CC[C@H](OC(C)=O)C(C)(C)C3CC[C@@]2(C)[C@]2(C)CCC([C@](C)(CCC=C(C)C)OC(C)=O)[C@@H]12 (stereo partly drawn) [Compound 16]	15.94 ± 4.29 ^a ng/g	4.12 ± 0.90 ^a mmol/L	5.18 ± 1.26 ^a mmol/L	0.88 ± 0.01	81 ± 12%	72 ± 21 ^a %	10.41 ± 2.09 ^a %
CC(=O)OC1CC2[C@@]3(C)CC[C@H](OC(C)=O)C(C)(C)C3CC[C@@]2(C)[C@]2(C)CCC([C@](C)(CCC3OC3(C)C)OC(C)=O)[C@@H]12 (stereo partly drawn) [Compound 17]	15.27 ± 4.65 ^a ng/g	5.55 ± 0.56 ^a mmol/L	4.83 ± 1.51 ^a mmol/L	0.87 ± 0.07	70 ± 15 ^a %	55 ± 21 ^a %	8.53 ± 2.57 ^a %
CC(=O)OC1CC2[C@@]3(C)CC[C@H](OC(C)=O)C(C)(C)C3CC[C@@]2(C)[C@]2(C)CCC([C@](C)(CCC=O)OC(C)=O)[C@@H]12 (stereo partly drawn) [Compound 18]	16.65 ± 4.57 ^a ng/g	4.72 ± 0.91 ^a mmol/L	6.15 ± 1.28 mmol/L	0.85 ± 0.08	84 ± 16%	76 ± 14 ^a %	9.15 ± 2.85 ^a %
COC(=O)[C@H](CC(C)C)NCCC[C@](C)(OC(C)=O)C1CC[C@]2(C)[C@@H]1C(OC(C)=O)CC1[C@@]3(C)CC[C@H](OC(C)=O)C(C)(C)C3CC[C@]12C (stereo partly drawn) [Compound 19]	11.23 ± 3.69 ^a ng/g	5.13 ± 0.83 ^a mmol/L	4.62 ± 1.34 ^a mmol/L	0.91 ± 0.07	63 ± 18 ^a %	43 ± 9 ^a %	8.34 ± 2.41 ^a %
COC(=O)[C@@H](NCCC[C@](C)(OC(C)=O)C1CC[C@]2(C)[C@@H]1C(OC(C)=O)CC1[C@@]3(C)CC[C@H](OC(C)=O)C(C)(C)C3CC[C@]12C)C(C)C (stereo partly drawn) [Compound 20]	15.98 ± 5.33 ^a ng/g	4.72 ± 0.52 ^a mmol/L	6.62 ± 0.89 mmol/L	1.02 ± 0.13	79 ± 15 ^a %	63 ± 14 ^a %	9.67 ± 2.98 ^a %
COC(=O)[C@H](NCCC[C@](C)(OC(C)=O)C1CC[C@]2(C)[C@@H]1C(OC(C)=O)CC1[C@@]3(C)CC[C@H](OC(C)=O)C(C)(C)C3CC[C@]12C)[C@@H](C)O (stereo partly drawn) [Compound 21]	10.76 ± 3.54 ^a ng/g	5.82 ± 0.95 ^a mmol/L	4.31 ± 1.84 ^a mmol/L	0.94 ± 0.17	65 ± 15 ^a %	47 ± 13 ^a %	8.28 ± 3.29 ^a %
COC(=O)[C@H](CO)NCCC[C@](C)(OC(C)=O)C1CC[C@]2(C)[C@@H]1C(OC(C)=O)CC1[C@@]3(C)CC[C@H](OC(C)=O)C(C)(C)C3CC[C@]12C (stereo partly drawn) [Compound 22]	18.14 ± 6.82 ^a ng/g	4.29 ± 0.84 ^a mmol/L	6.31 ± 1.17 mmol/L	1.03 ± 0.15	76 ± 10 ^a %	65 ± 14 ^a %	10.32 ± 2.74 ^a %
COC(=O)CCC(NCCC[C@](C)(OC(C)=O)C1CC[C@]2(C)[C@@H]1C(OC(C)=O)CC1[C@@]3(C)CC[C@H](OC(C)=O)C(C)(C)C3CC[C@]12C)C(=O)OC (stereo partly drawn) [Compound 23]	12.61 ± 374^a ng/g	5.39 ± 0.61 ^a mmol/L	4.28 ± 1.46 ^a mmol/L	1.01 ± 0.09	68 ± 18 ^a %	47 ± 19 ^a %	8.64 ± 2.46 ^a %
COC(=O)CNCCC[C@](C)(OC(C)=O)C1CC[C@]2(C)[C@@H]1C(OC(C)=O)CC1[C@@]3(C)CC[C@H](OC(C)=O)C(C)(C)C3CC[C@]12C (stereo partly drawn) [Compound 24]	15.47 ± 2.88 ^a ng/g	4.68 ± 0.67 ^a mmol/L	5.65 ± 1.04 ^a mmol/L	0.89 ± 0.14	79 ± 18 ^a %	66 ± 16 ^a %	9.54 ± 2.65 ^a %

Source: patent publication US11091511B2, “Panaxdiol-type ginsenoside derivative, preparation method therefor and use thereof” (ARMY MEDICAL UNIVERSITY, priority 2016, dated 2021)
